The subject of assay [1] is RKO colon adenocarcinoma cells. Description: MTT assay, RKO. The assay is classed as cell-based, human. The protocol:
(§1) Compounds are tested for their ability to inhibit cell proliferation and cell viability. The metabolic conversion of 3-(4,5-dimethylthiazol-2-yl)-2,5-diphenyltetrazolium bromide (MTT, Sigma #M2128) to a reduced form is a commonly used measure of cellular viability. Following is the procedure:
(§2) Cells are maintained in 75 cm^2 tissue culture flasks until ready for use. The cells are grown and plated for the assay in Dulbecco's modified Eagle's media (DMEM) containing 10% fetal bovine serum. For example, the following cell lines can be used: a) human foreskin fibroblasts (HFF); b) HT29 (human colon carcinoma cell line); c)MDA-MB-468 (human breast carcinoma cell line); d) RKO (human colon adenocarcinoma cell line); e) SW620 (human colon carcinoma cell line); f) A549 (human lung carcinoma cell line); and g) MIA PACA (human pancreatic carcinoma cell line). Cells are maintained at 37° C. in 10% CO2, 90% humidified air. Cells are plated in 96-well tissue culture plates at the densities listed below. 100 μL of cell suspension is added to each well of the 96-well plate except the top row of the plate which contains no cells and serves as a reference for the spectrophotometer.
(§3) Cells are incubated overnight in DMEM containing 10% fetal bovine serum at 37° C. in 10% CO2, 90% humidified air prior to dosing. […] Compounds with solubilities of less than 30 μM are dosed at the highest soluble concentration. Stock solutions of compounds are made in 100% dimethyl sulfoxide (DMSO). Stock solutions are diluted in DMEM containing 100 μg/ml gentamicin and 0.3 to 0.6% DMSO at the twice the highest concentration to be placed on the cells. If compounds have been dissolved in DMSO the final concentration of DMSO on the cells is kept below 0.3%. Three-fold serial dilutions are performed on each compound to prepare 10 concentrations of the compound for dosing. 100 μl of diluted compound is added to the 100 μl of media currently on the dish. For each concentration of compound, 2-4 replicate wells are prepared.
(§4) Cells are returned to incubator and allowed to proliferate in the presence of compound for 72 h before addition of MTT. MTT is prepared in phosphate buffered saline (Irvine Scientific #9240) at a concentration of 2 mg/ml. 50 μl per well of MTT solution is added to the 200 μl of media to yield a final concentration of 0.4 mg/ml and plates are returned to the incubator for 4 h. After 4 h incubation the media, compound and MTT mixture is aspirated from the plates and 100 μl of 100% DMSO is added to each well in addition to 25 μl of Sorenson's Buffer (0.1M glycine, 0.1M NaCl, pH 10.5). Quantitation of metabolic reduction of MTT in each plate is performed by reading optical density at 570 nm wavelength on a Molecular Devices UVmax microplate reader. Growth inhibition curves and 50% inhibitory concentrations are determined using Microsoft Excel.
HDF are normal diploid fibroblast cells. RKO are colon adenocarcinoma cells and MES/SA are […].
Background: Tetrazolium assays rely on reduction of a dye to a coloured formazan, in cell work by metabolically active cells.

Another assay deals with Lck (Homo sapiens, UniProt P06239). Description: Lck peptide phosphorylation assay (Elisa or isotope based). The assay is classed as biochemical.
The next assay addresses VEGFR2 (Homo sapiens, UniProt P35968). The experiment in a line: VEGFR-2 kinase domain peptide phosphorylation Elisa. In kind it is biochemical. The protocol:
The peptide substrate used in the VEGFR-2 assay was biotin-aminohexyl-[…]-NH2. The kinase domain of the enzyme was purified to homogeneity from a baculovirus expression system. The enzyme was preactivated on ice for 15 min in the presence of 100 μM ATP and 20 mM MgCl2, and stored at −80° C. until needed for assay. The activated enzyme was diluted to 0.4 nM into a 60 μl reaction containing 100 mM HEPES, pH 7.5, 5 μM ATP, 10 mM MgCl2, 5 μM peptide, 0.1 mM DTT, 0.05 mg/ml BSA, and an inhibitor at varying concentrations. The controls were reactions in the presence (negative controls) or absence (positive controls) of 50 mM EDTA. Reactions were incubated for 30 min at room temperature, and then quenched by the addition of EDTA to 60 mM in 210 μl. The quenched samples (190 μl) were transferred to a neutravidin-coated plate (Pierce) and incubated at room temperature for 40 min to allow biotinylated peptide to bind to the neutravidin. The unbound components of the reaction were removed by washing with a plate washer, then 200 μl HRP-PY20 anti-phosphotyrosine antibody conjugate was added to each well. After incubation for 40 min, the plate was washed to remove any unbound antibody. A HRP substrate, K-blue (Neogen) was added and the reaction was quenched with Red Stop (Neogen) after 20 min. The absorbance of the wells was read at A650 in a plate reader. IC50 values were obtained by fitting raw data to A650=Vmax*(1−[l]/IC50+[l])))+b, where b is background.

A further assay concerns MDA MB468. Description: MTT assay, MDA MB468. In kind it is cell-based, human. The procedure:
as §1, §2, §3, §4

The mark [2] stands for this setting: Homo sapiens, 72 h, read-out: MTT RKO IC50.
The mark [3] stands for this setting: Homo sapiens, 72 h; read-out: MTT RKO IC50.
Where [4] appears, read: Homo sapiens, MDA-MB-468, 72 h; read-out: MTT MDA MB468 IC50.

Read-outs that look alike come from different tables or passages of the source. Where only a bound is given, the exact number is not on record here.

Sequence of Lck (P06239 whole entry, species assumed, the tested form may be a part): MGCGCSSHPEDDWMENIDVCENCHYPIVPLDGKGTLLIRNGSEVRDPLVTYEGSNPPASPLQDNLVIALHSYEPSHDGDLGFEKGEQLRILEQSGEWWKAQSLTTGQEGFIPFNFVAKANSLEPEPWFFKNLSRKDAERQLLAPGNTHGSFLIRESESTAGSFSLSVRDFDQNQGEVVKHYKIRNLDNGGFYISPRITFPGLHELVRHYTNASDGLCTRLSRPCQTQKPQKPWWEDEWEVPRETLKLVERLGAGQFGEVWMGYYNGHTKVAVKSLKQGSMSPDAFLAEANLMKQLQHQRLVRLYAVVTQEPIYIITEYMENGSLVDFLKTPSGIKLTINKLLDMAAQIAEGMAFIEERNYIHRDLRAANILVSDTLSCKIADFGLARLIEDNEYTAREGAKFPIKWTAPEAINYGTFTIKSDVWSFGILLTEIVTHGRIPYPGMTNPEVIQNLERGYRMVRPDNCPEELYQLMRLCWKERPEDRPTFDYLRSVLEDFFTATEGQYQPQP
Sequence of VEGFR2 (P35968 834-1162 limits assumed, species assumed): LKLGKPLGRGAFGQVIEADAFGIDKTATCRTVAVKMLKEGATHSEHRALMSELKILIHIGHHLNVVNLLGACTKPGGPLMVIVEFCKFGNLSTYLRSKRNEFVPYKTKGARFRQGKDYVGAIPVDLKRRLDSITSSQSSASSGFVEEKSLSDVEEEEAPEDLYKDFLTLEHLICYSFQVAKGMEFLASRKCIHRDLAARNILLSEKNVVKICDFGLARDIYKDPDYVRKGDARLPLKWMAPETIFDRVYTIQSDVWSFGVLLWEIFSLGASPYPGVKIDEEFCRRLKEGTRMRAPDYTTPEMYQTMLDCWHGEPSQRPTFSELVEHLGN
Description for Lck: The src and Ick proteins were purified to homogeneity from a baculovirus expression system and preactivated before adding to assay mixtures. The maximum activation was achieved by incubating concentrated enzyme (10-30 mM) on ice for 40 min in the presence of 1 mM ATP and 10 mM MgCl2 in 100 mM HEPES, pH 7.5. The activated enzyme was diluted to 2 nM into a 50-mL reaction mixture containing 100 mM HEPES, pH 7.5. 5 mM ATP, 10 mM MgCl2, 2 mM peptide, 0.05 mg/mL BSA, and an inhibitor at varying concentrations and with or without 8 mCi/mL [γ-^33P]ATP dependent upon the method of analysis for the extent of reaction. The controls were reactions in the presence (negative controls) or absence (positive controls) of 50 mM EDTA. Reactions were allowed to proceed for 30 min at room temperature and quenched with addition of EDTA to 50 mM in 220 mL. The extent of reactions was analyzed in one of the two ways: an Elisa-based and a radioactive isotope-based. The quenched samples (200 mL) were transferred to a neutravidin coated plate (Perice) and incubated at room temperature for 40 min to allow biotinylated peptide to bind to neutravidin. The unbound peptide and the rest of the solution was washed away using a plate washer. In the Elisa format, a 200 mL HRP-PY20 anti phosphotyrosine antibody conjugate solution was added. After incubation for about 30 min, the plated was washed to remove unbound antibody-HRP conjugate. An Elisa substrate, K-blue (Neogen), was added and the Elisa reaction quenched with Red-stop (Neogen) after 15 min. The plate was read at A625 in a plate reader. In the isotope-based format, the reactions had been performed in the presence of [γ-^33P]ATP. 200 mL Scintiverce DB was added to each well of the plate with bound biotin-peptide. The plate was sealed and counted in a micro-b-counter (Wallac). IC50 values were obtained by fitting raw data to A625 (cpm)=Vmax*(1−([l]/(IC50+[l])))+b, where b is background.

As for `CNS(=O)(=O)Cc1ccc(NN=C2C(=O)Nc3ccc4ncccc4c32)cc1` [Example 68, N-Methyl-C-{4-[N′-(2-oxo-2,3-dihydro-pyrrolo[3,2-f]quinolin-1-ylidene)-hydrazino]-phenyl}-methanesulfonamide], the half-inhibitory concentration (IC50) in assay [1] (setting [2]) was over 5000 nM; at Lck, over 100 nM.

Take `O=C1Nc2ccc3ncsc3c2C1=CNc1ccc(S(=O)(=O)Nc2ccccn2)cc1` [Example 72, 4-[(7-Oxo-6,7-dihydro-1-thia-3,6-diaza-as-indacen-8-ylidenemethyl)-amino]-N-pyridin-2-yl-benzenesulfonamide]: the concentration for half-maximal inhibition (IC50) is 1100 to 5000 nM in assay [1] (setting [2]); 51 to 100 nM on VEGFR2; over 5000 nM in the assay with MDA MB468 (Homo sapiens, MDA-MB-468, 72 h, read-out: MTT MDA MB468 IC50).

On to `CS(=O)(=O)Cc1ccc(NC=C2C(=O)Nc3ccc4ncsc4c32)cc1` [Example 76, 8-(4-Methylsulfonylmethyl-phenylamino-methylene)-6,8-dihydro-1-thia-3,6-diaza-as-indacen-7-one], for which the IC50 in assay [1] (setting [3]) is over 5000 nM; on Lck, over 100 nM; at VEGFR2, over 100 nM; in the assay with MDA MB468 (setting [4]), over 5000 nM.

Consider `CC(C)(CO)CNS(=O)(=O)c1ccc(NC=C2C(=O)Nc3ccc4ncsc4c32)cc1` [Example 77, N-(3-Hydroxy-2,2-dimethyl-propyl)-4-[(7-oxo-6,7-dihydro-1-thia-3,6-diaza-as-indacen-8-ylidenemethyl)-amino]-benzenesulfonamide], for which the IC50 was 1100 to 5000 nM in assay [1] (setting [3]) and over 5000 nM with MDA MB468 (setting [4]).

As for `CNS(=O)(=O)Cc1ccc(NN=C2C(=O)Nc3cc(C)c(O)c(C)c32)cc1` [Example 99], the half-inhibitory concentration (IC50) was 100 to 500 nM in assay [1] (setting [3]), over 100 nM on Lck, over 100 nM on VEGFR2 and 100 to 500 nM in the assay with MDA MB468 (setting [4]).

A word on the IC50: it is the midpoint of a concentration-inhibition curve.
